The values that follow come from patent publication US7939564B2, “Combination with bis(thiohydrazide amides) for treating cancer” (Synta Pharmaceuticals Corp., priority 2006, dated 2011).

Where “and” joins values, the source holds several entries; their conditions need not be identical. Equal values may be shown once. Entries after “also recorded” stand apart in the source; their conditions may differ. Read-outs that look alike come from different tables or passages of the source.

For series [1], the system named is Ramos cells. As to the kind of experiment: ROS generation in drug-treated cells, carboxy-H2DCFDA probe, flow cytometry. The class given is cell-based. The following applies: for blocking of the ROS generation induced by Compound 1: Ramos cells pre-treated 1 hour (NAC 1.0 mM or 10 mM; Tiron 500 mM) prior to Compound 1 0.5 μM for 24 hours. As to the method: In these experiments, we monitored the production of ROS using the cell permeable Carboxy-H2DCFDA probe. When this probe is oxidized by ROS, it emits a green fluorescence that can be detected using flow cytometry or fluorescent microscopy. Ramos cells were treated with Compound 1 (0.5 μM) for 24 hours or pre-treated with 1.0 mM or 10 mM NAC for 1 hour prior to addition of Compound 1 was then washed gently once with warm HBSS/Ca/Mg (GIBCO.14025). 25 μM carboxy-H2DCFDA (Invitrogen. C400) working solution was added to cover the cells, and the cells were incubated for 30 minutes at 37° C., protected from light. The cells were gently washed three times in warm HBSS/Ca/Mg. ROS levels, as determined by fluorescence intensity, were determined by flow cytometry (excitation at 495 nm, emission at 529 nm).
Tiron is a direct scavenger of ROS and is a potent inhibitor of oxidative stress. Ramos cells were pre-treated with 500 mM Tiron 1 hour prior to addition of Compound 1 (0.5 μM) for 24 hours, then measurement of ROS levels was performed as in Example 3.

Series [2] has as its system RERF-LC-AI^IVP human lung tumor cells. As to the kind of experiment: Nude mouse xenograft study with fractionated ionizing radiation. In kind it is in vivo. As to the method: Cells that had been cryopreserved in liquid nitrogen were rapidly thawed at 37° C. and transferred to a tissue culture flask containing growth media and then incubated at 37° C. in a 5% CO2 incubator. […] Cultures were passaged by washing with 10 mL of room temperature phosphate buffered saline (PBS) and then disassociating cells by adding 5 mL 1× trypsin-EDTA and incubating at 37° C. until the cells detached from the surface of the flask. To inactivate the trypsin, 5 mL of growth media was added and then the contents of the flask were centrifuged to pellet the cells. The supernatant was aspirated and the cell pellet was resuspended in 10 mL of growth media and the cell number determined using a hemocytometer.
Animals were housed 4-5/cage in micro-isolators, with a 12 hr/12 hr light/dark cycle, acclimated for at least 1 week prior to use and fed normal laboratory chow ad libitum.

Series [3] deals with melanoma. The following applies: other currently used treatments for melanoma, cited from earlier work.
The subject of series [4] is Hsp70. As to the kind of experiment: Hsp70 induction by Compound 1 in cells pre-treated with Tiron. In kind it is cell-based. The following applies: Ramos cells pre-treated with 500 mM Tiron 1 hour prior to Compound 1 0.5 μM for 24 hours.
The test system of series [5] is Stage 1V melanoma.
Protocol: A total of 81 people with Stage 1V melanoma were tested in a randomized trial with ratios of 2:1, compound (I)+paclitaxel (53 people): paclitaxel alone (28 people). The dosages administered were 213 mg/m^2 compound (I), 80 mg/m^2 paclitaxel, and the dosage regimen was 3 weekly doses per each 4 week cycle. Patients were treated until progression of the disease. Patients who progressed on paclitaxel alone were given the option to crossover to compound (I)+paclitaxel and were treated until progression. The tumor assessments were performed at baseline, Cycle 2, and every other Cycle thereafter.
[6] abbreviates: RECIST, Efficacy Sample (n = 50 combination, n = 27 Paclitaxel).
Setting [7] is: Tables 3 and 4, lines of the applicant's own trial.

On to `CN(NC(=O)CC(=O)NN(C)C(=S)c1ccccc1)C(=S)c1ccccc1` [Compound (1)], for which the “earliest time at which induction of ROS was observed” value in series [1] (Ramos cells, Compound 1) is at most 3 h. The “generation of ROS in drug-treated cells” value in series [1] (Ramos cells, Compound 1 0.5 μM, 24 hours, versus DMSO) is listed as “induced the generation of ROS; also recorded: emit more reactive oxygen species than cells treated with DMSO alone”. Also, the “% T/C” value was determined as 47 in series [2] (100 mg/kg Compound 1 5 times per week combined with 0.5 Gy radiation 3 times per week, dosed 420 minutes after irradiation) and 112 in series [2] (100 mg/kg Compound 1 i.v. 5 times per week, 15 doses, alone (mock irradiation)). Further, in series [2] (100 mg/kg Compound 1 combined with 0.5 Gy radiation, Nude mice), the “toxicity of the combination treatment” value is recorded as “not associated with excessive toxicity”.

For `CNC(=O)c1cc(Oc2ccc(NC(=O)Nc3ccc(Cl)c(C(F)(F)F)c3)cc2)ccn1` [Sorafenib], in series [3], the “PR (%)” value is on record as 2.6%.

On to `O=S(=O)(O)c1cc(O)c(O)c(S(=O)(=O)O)c1` [Tiron], for which the “blocking of the Hsp70 induction by Compound 1” value in series [4] is on record as “blocked; also recorded: blocks the induction of Hsp70”. In addition, the “blocking of the ROS generation induced by Compound 1” value in series [1] was “blocked the ability of Compound 1 to generate ROS; also recorded: block the production of reactive oxygen species”.

As to `CCOP(=O)(OCC)C(C)NC(=O)N(CCCl)N=O` (stereo not drawn) [Fotemustine], in series [3], the “OR (%)” value is on record as 15.2%, the “Survival (months)” value is 7.3 months and the “TTP” value is 55 days.

Regarding `CC/C(=C(\c1ccccc1)c1ccc(OCCN(C)C)cc1)c1ccccc1` [Tamoxifen], in series [3], the “CR (%)” value was 1%, the “OR (%)” value is reported as 4.9% and the “PR (%)” value was 3.9%.

`CC(=O)O[C@H]1C(=O)[C@@]2(C)[C@H]([C@H](OC(=O)c3ccccc3)[C@]3(O)C[C@H](OC(=O)[C@H](O)[C@@H](NC(=O)c4ccccc4)c4ccccc4)C(C)=C1C3(C)C)[C@]1(OC(C)=O)CO[C@@H]1C[C@@H]2O` [Paclitaxel]: the “OR (%)” value in series [3] (listed as Paclitaxel (Taxol)) is 12% and 17.8%. In addition, in series [5] (Kaplan-Meier estimate, Efficacy Sample, 213 mg/m^2 compound (I), 80 mg/m^2 paclitaxel, 3 weekly doses per 4 week cycle), the “Time to Progression (days), 25th percentile” value is given as 49.0 days. Also, the “Time to Progression (days), 75th percentile” value in series [5] (Kaplan-Meier estimate, Efficacy Sample, same regimen) was 106.0 days. Moreover, the “Time to Progression (days), Median” value in series [5] (Kaplan-Meier estimate, Efficacy Sample, same regimen, log-rank p-value 0.017) is 56.0 days. In addition, in series [5] (RECIST, Efficacy Sample), the “Best Overall Response: Partial Response (PR), percent of patients” value is “(3.7%)” and the “Best Overall Response: Progressive Disease (PD), percent of patients” value was “(59.3%)”. Besides, in series [5] (setting [6]), the “Best Overall Response: Complete Response (CR), number of patients” value was determined as 0; the “Best Overall Response: Partial Response (PR), number of patients” value is given as 1; the “Best Overall Response: Progressive Disease (PD), number of patients” value is given as 16; the “Best Overall Response: Stable Disease (SD), number of patients” value came out at 10. Also, the “CR + PR” value in series [5] (RECIST, Efficacy Sample, Two-Sided Fisher's Exact Test p-value 0.149) is recorded as 3.7%. In series [5] (setting [7]), the “CR (%)” value was determined as 0%, the “OR (%)” value amounted to 3.7%, the “PR (%)” value is given as 3.7% and the “TTP” value is 57 days.

Turning to `CC(=O)N[C@@H](CS)C(=O)O` [NAC], the “blocking of the ROS generation induced by Compound 1” value in series [1] was “almost completely blocked the generation of ROS; also recorded: can be blocked; also recorded: block the production of reactive oxygen species”.
